In ChEMBL document CHEMBL2146417, “Fluorescent reporters of monoamine transporter distribution and function” (Bioorg Med Chem Lett, 2011):
The source made the active and inactive calls. No cut-off for these calls is given here.

Assays:
[1] = Solubility of the compound in methanol; type: physicochemical
[2] = species: Gallus gallus; test: Binding affinity to monoamine transporter in dissociated chick brain stem cells assessed as receptor-mediated compound uptake; type: cell-based
[3] = Solubility of the compound in DMSO; type: physicochemical
[4] = test system: HEK293; test: Binding affinity to human monoamine transporter expressed in HEK293 cells assessed as receptor-mediated compound uptake; type: cell-based
[5] = Octanol-phosphate buffered saline partition coefficient, log K of the compound; type: physicochemical; conditions: for logD: octanol/phosphate buffered saline, read-out: log K
[6] = test system: Rattus norvegicus; test: Toxicity in Sprague-Dawley rat assessed as change in mean breathing rate at 0.23 to 1 mM administered for 1 to 3 mins through polyethylene cannula in carotid artery measured after 200 to 400 seconds; type: organism-based; conditions: in vivo, other, 1000 µM
[7] = test system: Rattus norvegicus; test: Toxicity in Sprague-Dawley rat assessed as change in blood pressure at 0.25 mM administered for 30 seconds through polyethylene cannula in carotid artery; type: organism-based; conditions: in vivo, other, 250 µM
[8] = test system: Rattus norvegicus; test: Toxicity in Sprague-Dawley rat assessed as change in heart rate at 0.25 mM administered for 30 seconds through polyethylene cannula in carotid artery; type: organism-based; conditions: in vivo, other, 250 µM
[9] = Drug uptake in Sprague-Dawley rat blood platelet cells administered through intra-arterial injection by fluorescence microscopy analysis; type: ADME, cell-based; conditions: in vivo, other
[10] = test system: Brain; test: Drug uptake in Sprague-Dawley rat brain administered through intra-arterial injection by fluorescence microscopy analysis; type: ADME, tissue-based; conditions: in vivo, other
[11] = test system: Rattus norvegicus; test: Toxicity in Sprague-Dawley rat assessed as change in mean breathing rate at 0.25 mM administered for 30 seconds through polyethylene cannula in carotid artery; type: organism-based; conditions: in vivo, other, 250 µM
[12] = test system: MLO-Y4; test: Binding affinity to monoamine transporter in mouse MLO-Y4 cells assessed as receptor-mediated compound uptake at 20 uM by confocal microscopic analysis in presence of serotonin reuptake inhibitor clomipramine; type: cell-based
[13] = test system: Rattus norvegicus; test: Toxicity in Sprague-Dawley rat assessed as prolonged reduction in NRM neurons activity at 0.23 to 1 mM administered for 1 to 3 mins through polyethylene cannula in carotid artery measured immediately post dose; type: organism-based; conditions: in vivo, other, 1000 µM
[14] = test system: Rattus norvegicus; test: Toxicity in Sprague-Dawley rat assessed as prolonged reduction in NRM neurons activity at 0.23 to 1 mM administered for 1 to 3 mins through polyethylene cannula in carotid artery measured 30 mins post dose; type: organism-based; conditions: in vivo, other, 0.5 h, 1000 µM
[15] = test system: Rattus norvegicus; test: Toxicity in Sprague-Dawley rat assessed as change in mean breathing rate at 0.23 to 1 mM administered for 1 to 3 mins through polyethylene cannula in carotid artery measured after 600 seconds; type: organism-based; conditions: in vivo, other, 10 min, 1000 µM

**Q.** What does the source list for NCCc1ccc2ccc3cccc4ccc1c2c34?
**A.** solubility [1]: soluble; Activity [2]: inactive; solubility [3]: soluble; Activity [4]: inactive; logD [5]: 1.42

**Q.** For NCCc1c[nH]c2ccc(O)cc12 [SEROTONIN], which logD [5] is on record?
**A.** The logD was -1.57.

**Q.** What does the source list for NCCc1c2ccccc2cc2ccccc12?
**A.** solubility [1]: soluble; Activity [2]: inactive; solubility [3]: soluble; Activity [4]: inactive; logD [5]: 1.1

**Q.** For CN[C@H]1CC[C@@H](c2ccc(Cl)c(Cl)c2)c2ccccc21 [SERTRALINE], which “log K” value ([5]; octanol/water) is on record?
**A.** The value was 1.37.

**Q.** With COc1cccc2c(OCCN)cccc12 as the compound, how does the solubility [1] read?
**A.** The solubility was “soluble”.

**Q.** And the Activity [2]?
**A.** Its Activity is “inactive”.

**Q.** What about the solubility [3] of the same compound?
**A.** The solubility was “soluble”.

**Q.** And the Activity [4]?
**A.** Its Activity is “inactive”.

**Q.** What about the logD [5] of the same compound?
**A.** The logD was 0.28.

**Q.** With NCCn1cc2c(nc1=O)Nc1ccccc1S2 as the compound, how does the solubility [1] read?
**A.** Its solubility is “soluble”.

**Q.** And the Activity [2]?
**A.** Its Activity is “Active”.

**Q.** What about the solubility [3] of the same compound?
**A.** The solubility was “soluble”.

**Q.** And the Activity [4]?
**A.** Its Activity is “Active”.

**Q.** What about the logD [5] of the same compound?
**A.** The logD was 0.65.

**Q.** Which logD [5] does the source give for NCCc1ccc(O)c(O)c1 [DOPAMINE] here?
**A.** The logD was -2.38.

**Q.** For NCCOc1cccc2c(O)cccc12, which solubility [1] is on record?
**A.** Its solubility is “soluble”.

**Q.** What about the Activity [2] of the same compound?
**A.** Its Activity is “inactive”.

**Q.** And the solubility [3]?
**A.** The solubility was “soluble”.

**Q.** And the Activity [4]?
**A.** The Activity was “inactive”.

**Q.** And the logD [5]?
**A.** Its logD is 0.1.

**Q.** For NCCN1C(=O)c2cccc3c(N)ccc(c23)C1=O, which solubility [1] is on record?
**A.** Its solubility is “soluble”.

**Q.** And the Activity [6]?
**A.** The Activity was “Non-toxic”.

**Q.** And the Activity [7]?
**A.** The Activity was “Non-toxic”.

**Q.** What about the Activity [2] of the same compound?
**A.** The Activity was “Active”.

**Q.** And the Activity [8]?
**A.** Its Activity is “Non-toxic”.

**Q.** And the Drug uptake [9]?
**A.** Its Drug uptake is “Active”.

**Q.** What about the Drug uptake [10] of the same compound?
**A.** The Drug uptake was “Not Active”.

**Q.** And the Activity [11]?
**A.** The Activity was “Non-toxic”.

**Q.** And the Activity [12]?
**A.** The Activity was “inactive”.

**Q.** What about the solubility [3] of the same compound?
**A.** Its solubility is “soluble”.

**Q.** What about the Activity [13] of the same compound?
**A.** Its Activity is “Toxic”.

**Q.** And the Activity [4]?
**A.** Its Activity is “Active”.

**Q.** What about the Activity [14] of the same compound?
**A.** Its Activity is “Non-toxic”.

**Q.** What about the Activity [15] of the same compound?
**A.** The Activity was “Non-toxic”.

**Q.** And the logD [5]?
**A.** The logD was -0.58.
